SMILES strings stand for the structures. Where a name gives a salt, the structure may show the parent alone.

The subject of assay [1] is ethanol-induced gastric ulceration in rats. Put plainly: Inhibition of ethanol-induced gastric ulceration in rats (cytoprotective activity). The class given is in vivo, rat. Particulars: dose of 30 mg/kg. The text has this: The in vivo utility of the present compounds as antiulcer agents is also particularly shown by their cytoprotective activity.
In assay [2] the target is T1, H^+ / K^+ ATPase isolated from canine gastric mucosa (Canis lupus familiaris, UniProt P50996).
T1 construct: ATPase isolated from canine gastric mucosa; from tissue; host or cells: canine gastric mucosa
T1 sequence (P50996 2-1034 limits assumed): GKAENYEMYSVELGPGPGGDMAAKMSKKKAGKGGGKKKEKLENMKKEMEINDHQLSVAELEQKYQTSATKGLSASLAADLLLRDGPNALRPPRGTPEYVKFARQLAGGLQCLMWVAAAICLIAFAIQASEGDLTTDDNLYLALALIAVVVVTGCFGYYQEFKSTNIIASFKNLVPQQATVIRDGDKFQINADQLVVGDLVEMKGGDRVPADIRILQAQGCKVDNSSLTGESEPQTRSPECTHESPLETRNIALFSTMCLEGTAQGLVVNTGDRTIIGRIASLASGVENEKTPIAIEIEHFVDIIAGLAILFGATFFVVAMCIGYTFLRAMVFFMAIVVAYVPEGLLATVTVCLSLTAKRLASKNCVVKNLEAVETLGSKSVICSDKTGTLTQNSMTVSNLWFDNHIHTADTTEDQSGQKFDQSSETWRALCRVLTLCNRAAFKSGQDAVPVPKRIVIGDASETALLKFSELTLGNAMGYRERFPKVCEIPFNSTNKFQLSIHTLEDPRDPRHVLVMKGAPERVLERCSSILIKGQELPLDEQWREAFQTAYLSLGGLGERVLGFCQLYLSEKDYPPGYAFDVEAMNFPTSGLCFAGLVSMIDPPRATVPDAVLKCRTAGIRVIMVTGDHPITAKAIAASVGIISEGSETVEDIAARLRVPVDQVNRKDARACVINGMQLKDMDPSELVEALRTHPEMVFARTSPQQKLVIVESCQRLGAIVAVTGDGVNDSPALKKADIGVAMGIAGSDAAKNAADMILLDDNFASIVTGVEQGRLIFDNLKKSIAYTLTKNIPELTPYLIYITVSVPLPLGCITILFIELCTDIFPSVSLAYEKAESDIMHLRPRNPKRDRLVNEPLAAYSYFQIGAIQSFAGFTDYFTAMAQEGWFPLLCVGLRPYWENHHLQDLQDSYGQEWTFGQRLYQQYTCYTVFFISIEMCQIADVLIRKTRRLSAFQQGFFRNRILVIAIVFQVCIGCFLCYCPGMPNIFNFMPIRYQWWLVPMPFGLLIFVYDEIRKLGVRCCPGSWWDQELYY
T1 sequence (P33704 whole entry partner): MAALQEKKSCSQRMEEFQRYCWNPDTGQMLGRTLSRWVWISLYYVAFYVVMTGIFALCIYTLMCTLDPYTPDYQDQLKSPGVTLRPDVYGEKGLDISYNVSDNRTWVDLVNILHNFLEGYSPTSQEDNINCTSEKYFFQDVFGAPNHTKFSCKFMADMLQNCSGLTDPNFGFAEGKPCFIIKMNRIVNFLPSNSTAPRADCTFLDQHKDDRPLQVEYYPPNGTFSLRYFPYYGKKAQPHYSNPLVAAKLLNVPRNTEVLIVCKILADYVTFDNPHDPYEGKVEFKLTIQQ
Put plainly: Inhibition of H+/K+ ATPase isolated from canine gastric mucosa. Particulars: preincubated 45 minutes at 37° C., pH 7.5, drugs preferably acid activated in 1:1 dimethylsulfoxide:0.02N HCl, 30 minutes, read-out: IC50 (the concentration which inhibits the enzyme to the extent of 50%). It counts as biochemical. The procedure: The utility of the present compounds as antiulcer agents is reflected in vitro by their inhibition of H^+ / K^+ ATPase isolated from canine gastric mucosa. The enzyme activity was assayed according to Beil et al., Brit. J. Pharmacol. 82, 651-657 (1984) with slight modifications. The enzyme (1-2 micrograms) was preincubated at 37° C. for 45 minutes with a medium containing 2×10^-3 M MgCl2, 0.05M Tris-Cl buffer (pH 7.5) with or without 0.01M KCl, and the acid activated test drug in a final volume of 0.590 ml. The reaction was started by the addition of […] of ATP (final concentration 3×10^-3 M). The reaction was terminated by adding trichloroacetic acid to a concentration of 4.2%. Liberated inorganic phosphate was determined using Fiske and Subbarow Reducer available commercially (e.g., from Sigma Chemical Co., P.O. Box 14508, St. Louis, Mo. 63178, U.S.A.). In this test the drugs are preferably first acid activated by incubating in 1:1 dimethylsulfoxide:0.02N HCl at 37° C. for 30 minutes.

As to `NC(=Nc1nc(-c2ccc[nH]2)cs1)NCc1ccccc1` [2-(N-benzylguanidino)-4-(pyrrol-2-yl)thiazole], the “inhibition of ethanol-induced gastric ulceration” value in assay [1] is reported as 99%.

`Cc1cc(-c2csc(NC(=N)N)n2)c[nH]1` [2-guanidino-4-(2-methylpyrrol-4-yl)thiazole]: in assay [2], the IC50 was 15 µM. Also, the “inhibition of ethanol-induced gastric ulceration” value in assay [1] is given as 100%.

`N=C(NCc1ccccc1)Nc1nc(-c2c[nH]c3ccccc23)cs1` [4-(1H-Indol-3-yl)-2-(N-benzyl-N"-guanidino)thiazole Hydrochloride]: in assay [2], the IC50 is 2 µM.

Turning to `COc1cccc(-c2csc(NC(=N)NCc3ccccc3)n2)c1` [4-(3-methoxyphenyl)-2-(N-benzylguanidino)thiazole], the IC50 in assay [2] amounted to 10 µM.

As for `N=C(NCc1ccccc1)Nc1nc(-c2c[nH]c3ccc(Cl)cc23)cs1` [4-(5-chloro-1H-indol-3-yl)-2-(N-benzylguanidino)thiazole], the IC50 in assay [2] was determined as 0.6 µM.

These data come from US5026715A, “2-guanidino-4-arylthiazoles for treatment of peptic ulcers” (Pfizer Inc., priority 1989, dated 1991).
